Measurements from PubChem BioAssay (NCI).
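Where inhibition never reached the appropriate level, the endpoint shown equals the highest concentration tested. Otherwise, values were interpolated linearly from a five-concentration, 48-hour dose response in 96-well plates. At the TGI there is no net growth.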

Assays:
Assay in all cases: DTP human tumour cell line panel, 48 h
SW-620 colon = system: SW-620 colon
KM12 colon = system: KM12 colon
OVCAR-8 ovarian = system: OVCAR-8 ovarian
IGROV1 ovarian = system: IGROV1 ovarian
HT29 colon = system: HT29 colon
SNB-19 CNS = system: SNB-19 CNS
MALME-3M melanoma = system: MALME-3M melanoma
OVCAR-4 ovarian = system: OVCAR-4 ovarian
U251 CNS = system: U251 CNS
TK-10 renal = system: TK-10 renal
SR leukemia = system: SR leukemia
CAKI-1 renal = system: CAKI-1 renal
M19-MEL melanoma = system: M19-MEL melanoma
LXFL 529 NSCLC = system: LXFL 529 NSCLC
NCI-H226 lung = system: NCI-H226 lung
DMS 114 small cell lung = system: DMS 114 small cell lung
UACC-257 melanoma = system: UACC-257 melanoma
DMS 273 small cell lung = system: DMS 273 small cell lung
SNB-78 CNS = system: SNB-78 CNS
SK-MEL-28 melanoma = system: SK-MEL-28 melanoma
A498 renal = system: A498 renal
MOLT-4 leukemia = system: MOLT-4 leukemia
CCRF-CEM leukemia = system: CCRF-CEM leukemia
K-562 leukemia = system: K-562 leukemia
SK-MEL-2 melanoma = system: SK-MEL-2 melanoma
OVCAR-3 ovarian = system: OVCAR-3 ovarian
DLD-1 colon = system: DLD-1 colon
HCT-116 colon = system: HCT-116 colon
HOP-62 NSCLC = system: HOP-62 NSCLC
SF-539 CNS = system: SF-539 CNS
UACC-62 melanoma = system: UACC-62 melanoma
COLO 205 colon = system: COLO 205 colon
786-0 renal = system: 786-0 renal
SN12C renal = system: SN12C renal
SF-268 CNS = system: SF-268 CNS
KM20L2 colon = system: KM20L2 colon
OVCAR-5 ovarian = system: OVCAR-5 ovarian
A549 NSCLC = system: A549 NSCLC
EKVX NSCLC = system: EKVX NSCLC
M14 melanoma = system: M14 melanoma
UO-31 renal = system: UO-31 renal
NCI-H460 lung = system: NCI-H460 lung
HCT-15 colon = system: HCT-15 colon
LOX IMVI melanoma = system: LOX IMVI melanoma
XF 498 CNS = system: XF 498 CNS
NCI-H522 lung = system: NCI-H522 lung
NCI-H23 lung = system: NCI-H23 lung
SK-MEL-5 melanoma = system: SK-MEL-5 melanoma
HL-60(TB) leukemia = system: HL-60(TB) leukemia
ACHN renal = system: ACHN renal
HCC-2998 colon = system: HCC-2998 colon
RPMI-8226 leukemia = system: RPMI-8226 leukemia
SK-OV-3 ovarian = system: SK-OV-3 ovarian
SF-295 CNS = system: SF-295 CNS
RXF-631 renal = system: RXF-631 renal
SNB-75 CNS = system: SNB-75 CNS
RXF 393 renal = system: RXF 393 renal
HOP-92 NSCLC = system: HOP-92 NSCLC
HOP-18 NSCLC = system: HOP-18 NSCLC

Q: Which results are given for `C/C(=C\c1ccccc1)C(O)C(=O)c1nc2ccc(Cl)cc2[nH]c1=O` (stereo unspecified)?
A: TGI (SW-620 colon): > 100 µM; TGI (KM12 colon): > 100 µM; TGI (OVCAR-8 ovarian): > 100 µM; TGI (IGROV1 ovarian): > 100 µM; TGI (HT29 colon): > 100 µM; TGI (SNB-19 CNS): > 100 µM; TGI (MALME-3M melanoma): > 100 µM; TGI (OVCAR-4 ovarian): > 100 µM; TGI (U251 CNS): > 100 µM; TGI (TK-10 renal): > 100 µM; TGI (SR leukemia): > 100 µM; TGI (CAKI-1 renal): > 100 µM; TGI (M19-MEL melanoma): > 100 µM; TGI (LXFL 529 NSCLC): > 100 µM; TGI (NCI-H226 lung): > 100 µM; TGI (DMS 114 small cell lung): > 100 µM; TGI (UACC-257 melanoma): > 100 µM; TGI (DMS 273 small cell lung): > 100 µM; TGI (SNB-78 CNS): > 100 µM; TGI (SK-MEL-28 melanoma): > 100 µM; TGI (A498 renal): > 100 µM; TGI (MOLT-4 leukemia): > 100 µM; TGI (CCRF-CEM leukemia): 78.9 µM; TGI (K-562 leukemia): > 100 µM; TGI (SK-MEL-2 melanoma): > 100 µM; TGI (OVCAR-3 ovarian): > 100 µM; TGI (DLD-1 colon): > 100 µM; TGI (HCT-116 colon): > 100 µM; TGI (HOP-62 NSCLC): > 100 µM; TGI (SF-539 CNS): > 100 µM; TGI (UACC-62 melanoma): > 100 µM; TGI (COLO 205 colon): > 100 µM; TGI (786-0 renal): > 100 µM; TGI (SN12C renal): > 100 µM; TGI (SF-268 CNS): > 100 µM; TGI (KM20L2 colon): > 100 µM; TGI (OVCAR-5 ovarian): > 100 µM; TGI (A549 NSCLC): > 100 µM; TGI (EKVX NSCLC): > 100 µM; TGI (M14 melanoma): > 100 µM; TGI (UO-31 renal): > 100 µM; TGI (NCI-H460 lung): > 100 µM; TGI (HCT-15 colon): > 100 µM; TGI (LOX IMVI melanoma): > 100 µM; TGI (XF 498 CNS): > 100 µM; TGI (NCI-H522 lung): > 100 µM; TGI (NCI-H23 lung): > 100 µM; TGI (SK-MEL-5 melanoma): > 100 µM; TGI (HL-60(TB) leukemia): > 100 µM; TGI (ACHN renal): > 100 µM; TGI (HCC-2998 colon): > 100 µM; TGI (RPMI-8226 leukemia): > 100 µM; TGI (SK-OV-3 ovarian): > 100 µM; TGI (SF-295 CNS): > 100 µM

Q: What does the source list for `COC(=O)C1CC(=O)O[C@H]1c1ccc(OC)c(OC)c1` (stereo partly specified)?
A: TGI (SW-620 colon): > 100 µM; TGI (KM12 colon): > 100 µM; TGI (OVCAR-8 ovarian): > 100 µM; TGI (IGROV1 ovarian): > 100 µM; TGI (HT29 colon): > 100 µM; TGI (RXF-631 renal): > 100 µM; TGI (MALME-3M melanoma): > 100 µM; TGI (OVCAR-4 ovarian): > 100 µM; TGI (U251 CNS): > 100 µM; TGI (TK-10 renal): > 100 µM; TGI (SR leukemia): > 100 µM; TGI (CAKI-1 renal): > 100 µM; TGI (M19-MEL melanoma): > 100 µM; TGI (LXFL 529 NSCLC): > 100 µM; TGI (NCI-H226 lung): > 100 µM; TGI (DMS 114 small cell lung): > 100 µM; TGI (UACC-257 melanoma): > 100 µM; TGI (DMS 273 small cell lung): > 100 µM; TGI (SNB-78 CNS): > 100 µM; TGI (SNB-75 CNS): > 100 µM; TGI (SK-MEL-28 melanoma): > 100 µM; TGI (A498 renal): > 100 µM; TGI (MOLT-4 leukemia): > 100 µM; TGI (CCRF-CEM leukemia): > 100 µM; TGI (K-562 leukemia): > 100 µM; TGI (SK-MEL-2 melanoma): > 100 µM; TGI (RXF 393 renal): > 100 µM; TGI (OVCAR-3 ovarian): > 100 µM; TGI (HOP-92 NSCLC): > 100 µM; TGI (DLD-1 colon): > 100 µM; TGI (HCT-116 colon): > 100 µM; TGI (HOP-62 NSCLC): > 100 µM; TGI (SF-539 CNS): > 100 µM; TGI (UACC-62 melanoma): > 100 µM; TGI (COLO 205 colon): > 100 µM; TGI (786-0 renal): > 100 µM; TGI (SN12C renal): > 100 µM; TGI (SF-268 CNS): > 100 µM; TGI (KM20L2 colon): > 100 µM; TGI (OVCAR-5 ovarian): > 100 µM; TGI (A549 NSCLC): > 100 µM; TGI (EKVX NSCLC): > 100 µM; TGI (M14 melanoma): > 100 µM; TGI (UO-31 renal): > 100 µM; TGI (NCI-H460 lung): > 100 µM; TGI (HOP-18 NSCLC): > 100 µM; TGI (HCT-15 colon): > 100 µM; TGI (LOX IMVI melanoma): > 100 µM; TGI (XF 498 CNS): > 100 µM; TGI (NCI-H23 lung): > 100 µM; TGI (SK-MEL-5 melanoma): > 100 µM; TGI (HL-60(TB) leukemia): > 100 µM; TGI (ACHN renal): > 100 µM; TGI (HCC-2998 colon): > 100 µM; TGI (RPMI-8226 leukemia): > 100 µM; TGI (SK-OV-3 ovarian): > 100 µM; TGI (SF-295 CNS): > 100 µM
